Patent US6603023B2 (priority 1996, dated 2003)
Several values for one entry are separate records, joined by “and”; a condition that tells them apart may be missing. Equal values may be shown once. Read-outs that look alike come from different tables or passages of the source.

Legend:
[1] = test system: A549 Human Lung Carcinoma; experiment: A549 xenograft; type: in vivo, nude mice
[2] = test system: MDR human mammary adenocarcinoma MCF-7/Adr xenograft; experiment: in vivo; details: MCF-7/Adr; i.v. infusion (order wraps over rows r16-r17)
Experimental: DMSO was used as a vehicle for epothilones. Each mouse received ≦40 μL DMSO in all experiments.
Athymic nude mice (nu/nu) were used for MX-1 and MCF-7/Adr human mammary carcinoma xenografts. Mice were obtained from Taconic Laboratory Animals and Service (Germantown, N.Y.: outbred, Swiss background).

CCRF-CEM/VM1 = experiment: cells; type: cell-based, human
Experimental: (§1) The drug-resistant cell lines were continuously cultured in the presence of the selecting agent, AD, DX, VBL or VM to maintain the drug resistant phenotypes. […] All cells were cultured in RPMI 1640-10% FBS at 37° C. 5% CO2 (see below).
(§2) The cells were cultured at an initial density of 5×10^4 cells/mL. They were maintained in a 5% CO2-humidified atmosphere at 37° C. in RPMI-1640 medium (GIBCO-BRL, Gaithersburg, Md.) containing penicillin (100 U/mL), streptomycin ([…]) (GIBCO-BRL) and 10% heat inactivate fetal bovine serum. Culture for cell suspension (such as for CCRF-CEM, P388 and sublines), were performed by the XTT-microculture tetrazonium method (Scudiero, D. A. et al., Cancer Res. 1988, 48, 4827-4833) in duplicate in 96-well microtiter plates.
(§3) 2′,3′-Bis(methoxy-4-nitro-5-sufophenyl)-5-[(phenylamino)carbonyl]2H-tetrazolium hyudroxide (XTT) was prepared at 1 mg/mL in prewarmed (37° C.) medium without serum. Phenazine methosulfate (PMS) and fresh XTT were mixed together to obtain 0.025 mM PMS-XTT solution (25 μL of the stock 5 mM PMS was added per 5 mL of 1 mg/mL XTT). Following a 72 h incubation, 50 μL of the assay aliquots were added to each well of the cell culture. After incubation at 37° C. for 4 h, absorbance at 450 nm and 630 nm was measured with a microplate reader (EL340, Bio-Tek Instruments, Inc., Winooski, Vt.).

CCRF-CEM/VBL100 = experiment: cells; type: cell-based, human; details: for IC50: Homo sapiens, CCRF-CEM
Experimental: as §1, §2, §3

CCRF-CEM/Taxol® = experiment: cells; type: cell-based, human
Experimental: as §1, §2, §3

[3] = test system: DC-3F hamster lung fibroblast cell line; experiment: SRB cytotoxicity, DC-3F; type: cell-based; details: Mesocricetus auratus, DC3F, Table 3
Experimental: (§4) The DC-3F hamster lung fibroblast cell line and its actinomycin D-selected sublines (DC-3F/ADII and DC-3F/ADX) were obtained from the Memorial Sloan-Kettering Cancer Center (MSKCC).
as §1
(§5) The cytotoxicity of the drug toward the monolayer cell cultures (such as DC-3F, MCF-7, SK-N-As and sublines) was determined in 96-well microtiter plates by the SRB method as described by Skehan and co-workers (Skehan, P., et al., J. Natl. Cancer Inst. 1990, 82, 1107-1112) for measuring the cellular protein content. Cultures were fixed with trichloroacetic acid and then stained for 30 min with 0.4% suforhodamine B dissolved in 1% acetic acid. Unbound dye was removed by acetic acid washes, and the protein-bound dye was extracted with an unbuffered Tris base (tris(hydroxy-methyl)aminomethane) for determination of absorbance at 570 nm in a 96-well microtiter plate reader. The experiments were carried out in duplicate. Each run entailed six to seven concentrations of the tested drugs. Data were analyzed with the median-effect plot (Chou, T.-C. & Talalay, P. T. (1984) Adv. Enzyme Regul. 22, 27-55) using a previously described computer program (Chou, J., & Chou T.-C. 1987, Dose-effect analysis with microcomputers: Quantitation of ED50, synergism, antagonism, low-dose risk, reception-ligand binding and enzyme kinetics, IBM-PC software and manual, Biosoft, Cambridge, U.K.).

DC-3F/ADX = experiment: cells; type: cell-based, hamster; details: DC3F/ADX, Table 3
Experimental: as §4, §1, §5
(§6) Concerning Table 3, experiments were carried out using the cell lines DC-3F (parent hamster lung cells), DC-3F/ADII (moderate multidrug-resistant (MDR) cells) and DC-3F/ADX (very strong MDR cells).

[4] = test system: PC-3 Human Prostate Carcinoma; experiment: PC-3 xenograft; type: in vivo, nude mice
DC-3F/ADII = experiment: SRB cytotoxicity, DC-3F/ADII; type: cell-based, hamster; details: Mesocricetus auratus, DC3F
Experimental: as §4, §1, §5, §6

[5] = test system: CCRF-CEM human T-cell acute lymphoblastic leukemia cell line; experiment: XTT cytotoxicity (cell growth inhibition), CCRF-CEM
Experimental: as §4, §1, §2, §3

[6] = Q2D x 3: dEpoB 30 mg/kg 18 hr i.v. infusion, Taxol 15 mg/kg 6 hr infusion, VBL 2 and VP-16 25 mg/kg i.v. inj
[7] = Homo sapiens, CCRF-CEM, 72 h, Table 1A, XTT
[8] = Homo sapiens, CCRF-CEM, Table 5, single determinations
[9] = Homo sapiens, CCRF-CEM, read-out: IC50 (mean ± of determinations, in parentheses), Table 5
[10] = Table 5, single determinations, listed as VP-16
[11] = dEpoB 30 mg/kg 18 hr i.v. infusion, Taxol 16 mg/kg 6 hr infusion, VBL 2 and VP-16 25 mg/kg i.v. inj

SMILES: COc1cc([C@@H]2c3cc4c(cc3[C@@H](O[C@@H]3O[C@@H]5CO[C@@H](C)O[C@H]5[C@H](O)[C@H]3O)[C@H]3COC(=O)[C@H]23)OCO4)cc(OC)c1O [Etoposide, etoposide]
- Therapeutic effect Rank Order ([1]; A549, i.v. infusion): Taxol ®, dEpoB, VBL > VP-16
- Average Body Weight (change), Day 11 [1, 6]: +0.1 g
- Average Body Weight (change), Day 13 [1, 6]: -0.2 g
- Average Body Weight (change), Day 15 [1, 6]: -2.2 g
- Tumor Disappearance [1, 6]: 0/3
- Average Tumor Size, Day 11 ([1]; Q2D x 3: dEpoB 30 mg/kg 18 hr i.v. infusion, Taxol 15 mg/kg 6 hr infusion, VBL 2 and VP-16 25 mg/kg i.v. inj, control 96): 59 mm^3
- Average Tumor Size, Day 13 ([1]; Q2D x 3: dEpoB 30 mg/kg 18 hr i.v. infusion, Taxol 15 mg/kg 6 hr infusion, VBL 2 and VP-16 25 mg/kg i.v. inj, control 128): 150 mm^3
- Average Tumor Size, Day 15 ([1]; Q2D x 3: dEpoB 30 mg/kg 18 hr i.v. infusion, Taxol 15 mg/kg 6 hr infusion, VBL 2 and VP-16 25 mg/kg i.v. inj, control 306): 275 mm^3
- Average Tumor Size, Day 17 ([1]; Q2D x 3: dEpoB 30 mg/kg 18 hr i.v. infusion, Taxol 15 mg/kg 6 hr infusion, VBL 2 and VP-16 25 mg/kg i.v. inj, control 553): 536 mm^3
- Average Body Weight, Day 7 ([1]; initial weight, Q2D x 3: dEpoB 30 mg/kg 18 hr i.v. infusion, Taxol 15 mg/kg 6 hr infusion, VBL 2 and VP-16 25 mg/kg i.v. inj): 27.2 g
- Therapeutic effect Rank Order [2]: dEpoB >> VP-16,
- fold resistance vs parent CCRF-CEM (CCRF-CEM/VM1; CCRF-CEM/VM1 cells): 117 fold
- IC50 (CCRF-CEM/VM1; [7]): 34.4 µM
- IC50 (CCRF-CEM/VM1; Homo sapiens, CCRF-CEM, Table 2, CCR-CEM/VM-1): 34.5 µM
- IC50 (CCRF-CEM/VM1; [8]): 35.1 µM
- IC50 (CCRF-CEM/VM1; [9]): 34.4 µM
- (D)/(A) IC50 ratio (CCRF-CEM/VM1; Table 1A, CCRF-CEM/VM1 vs CCRF-CEM): 117
- relative resistance (fold) vs parent cell line (CCRF-CEM/VM1; Table 5): (117.4X)
- IC50 (CCRF-CEM/VM1; [10]): 42.2 µM and 25.9 µM
- Potency in parentheses relative to Epo B in CCRF-CEM cells (CCRF-CEM/VBL100; CCRF-CEM/VBL MDR cells): 1/29514
- Potency in square brackets relative to Epo B in CCRF-CEM/VBL MDR cells (CCRF-CEM/VBL100; CCRF-CEM/VBL MDR cells): 1/4919
- IC50 (CCRF-CEM/VBL100): 10.3 µM
- IC50 (CCRF-CEM/VBL100; 72 h, Table 1A, XTT): 10.3 µM
- IC50 (CCRF-CEM/VBL100; Table 2, CCRF-CEM/VLB): 7.39 µM
- IC50 (CCRF-CEM/VBL100; read-out: IC50 (mean ± of determinations, in parentheses), Table 5): 10.3 µM
- (B)/(A) IC50 ratio (CCRF-CEM/VBL100; Table 1A, CCRF-CEM/VBL100 vs CCRF-CEM): 35
- relative resistance (fold) vs parent cell line (CCRF-CEM/VBL100; Table 5): (35.3X)
- IC50 (CCRF-CEM/Taxol®; Homo sapiens, CCRF-CEM, 72 h): 1.32 µM
- (C)/(A) IC50 ratio (CCRF-CEM/Taxol®; Table 1A, CCRF-CEM/Taxol vs CCRF-CEM): 4.5
- IC50 [3]: 0.0339 µM
- IC50 (DC-3F/ADX): 12.1 µM
- Therapeutic effect Rank Order ([4]; PC-3, i.v. infusion (order wraps over rows r24-r25)): dEpoB >> VP-16
- Average Body Weight (change), Day 9 [4, 11]: +0.3 g
- Average Body Weight (change), Day 11 [4, 11]: -0.1 g
- Average Body Weight (change), Day 13 [4, 11]: -2.4 g
- Average Tumor Size (TC), Day 9 [4, 11]: 1.00 TC
- Average Tumor Size (TC), Day 11 [4, 11]: 1.12 TC
- Average Tumor Size (TC), Day 13 [4, 11]: 0.88 TC
- Tumor Disappearance [4, 11]: 0/3
- Average Body Weight, Day 5 ([4]; initial weight, dEpoB 30 mg/kg 18 hr i.v. infusion, Taxol 16 mg/kg 6 hr infusion, VBL 2 and VP-16 25 mg/kg i.v. inj): 24.9 g
- IC50 (DC-3F/ADII): 0.632 µM
- IC50 ([5]; Homo sapiens, CCRF-CEM): 0.29 µM
- IC50 [5, 7]: 0.29 µM
- IC50 ([5]; Homo sapiens, CCRF-CEM, Table 2): 0.221 µM
- IC50 [5, 8]: 0.259 µM
- IC50 [5, 9]: 0.293 µM
- IC50 [5, 10]: 0.323 µM and 0.296 µM
